Data from patent US20160097044A1, “Antimicrobial Enzyme Fusions Reduce Resistance and Kill Intracellular Staphylococcus aureus” (The United States of America, as Represented by the …, priority 2014, published 2016).

Key:
NRS 192 = test: Minimum Inhibitory Concentration (MIC) assay; type: cell-based, S. aureus
Protocol: (§1) The Minimum Inhibitory Concentrations (MIC) of each protein for multiple S. aureus strains was determined as previously described (Jones et al. 1985. In: Manual of Clinical Microbiology, Eds. Balows et al. American Society of Microbiology, Washington D.C., pp. 972-977) with the following modifications. Enzymes were serially diluted two fold across a 96 well plate, such that after dilution, 50 μl of the enzyme solution in 300 mM NaCl, 50 mM NaH2PO4, 30% glycerol pH 7.5, remained in each well. To each well was added 50 μl of TSB and 100 μl of S. aureus Newman in TSB (diluted to 5×10^6 cells/ml). The plates were incubated 20 h at 37° C. and read with a 96 well plate reader. MIC determination values were reported as the median of ≧4 replicates (Table 1).

USA 100 (NRS 382) = test: Minimum Inhibitory Concentration (MIC) assay; type: cell-based, S. aureus
Protocol: as §1

USA 300 (NRS 384) = test: Minimum Inhibitory Concentration (MIC) assay; type: cell-based, S. aureus
Protocol: as §1

USA 600 (NRS 22) = test: Minimum Inhibitory Concentration (MIC) assay; type: cell-based, S. aureus
Protocol: as §1

S. chromogenes MP02 = test: Minimum Inhibitory Concentration (MIC) assay; type: cell-based, Staphylococcus chromogenes; conditions: Mastitis isolate S. chromogenes MP02
S. epidermidis MP04 = test: Minimum Inhibitory Concentration (MIC) assay; type: cell-based, Staphylococcus epidermidis; conditions: Mastitis isolate S. epidermidis MP04
S. warneri MP06 = test: Minimum Inhibitory Concentration (MIC) assay; type: cell-based, Staphylococcus warneri; conditions: Mastitis isolate S. warneri MP06
S. xylosus MP05 = test: Minimum Inhibitory Concentration (MIC) assay; type: cell-based, Staphylococcus xylosus; conditions: Mastitis isolate S. xylosus MP05
S. aureus strain Newman [1] = type: cell-based; conditions: tenth round compared to first exposure
Protocol: For the MIC repeated exposure method, MIC determinations were performed with S. aureus strain Newman. 100 μl of S. aureus strain Newman culture that survived at ½ the MIC (the first well with visible growth) for each round was inoculated into 5 ml TSB and cultivated to mid-log phase growth. This culture was used as the inoculum for the next round of MIC exposure (overnight growth), and the cycle was repeated for 10 rounds.
Development of resistance to the triple-acting fusion enzymes was tested on S. aureus strain Newman and compared to both parental enzymes applied individually or simultaneously. […] Survivors of the ten round exposure to peptidoglycan hydrolase were passaged five times in medium with no peptidoglycan hydrolase added. […] We compared our triple-acting fusions to small molecule antibiotics in similar assays.

S. aureus strain Newman [2] = test: Resistance development, plate lysis repeated exposure method; type: cell-based; conditions: not shown
Protocol: For the plate lysis assays, purified enzymes were serially diluted in saline lysis buffer (SLB; 150 mM NaCl 10 mM Tris buffer, pH 7.5) with 15% glycerol, to yield concentrations of 100, 10, 1, and 0.1 pmoles/10 μl. S. aureus Newman was cultivated in tryptic soy broth (TSB) to an OD600 nm=0.4-0.6. The bacterial cells were harvested and diluted to yield a suspension with an OD600 nm of 0.1. Tryptic soy agar (TSA) plates were flooded with 3 ml of the bacterial cell suspension. Excess culture was removed, and the plates were air dried at room temperature for ˜30 min in a laminar flow hood. 10 μl of each peptidoglycan hydrolase dilution was then spotted onto the air-dried lawn, allowed to air dry, and the culture plates incubated overnight at 37° C. The following day, plates were evaluated visually and photographed.
In the Plate lysis method, bacterial cells were scraped from a sub-lethal (not fully cleared) spot from a plate lysis assay (described above), and these ‘exposed’ cells were used to inoculate 5 ml of TSB and grown for 4-6 hours to generate a new culture and lawn for subsequent exposure. Bacteria were passaged in this assay for up to 10 consecutive days, at which time the S. aureus were tested in MIC assays. Plate lysis repeated exposure experiments were performed in duplicate.

S. aureus SA113 biofilms = test: Static biofilm reduction model; type: cell-based; conditions: 1 h treatment, compared to buffer treated biofilms
Protocol: S. aureus SA113 biofilms were treated for 1 h with 100 μl of each enzyme individually or as equimolar mixtures of LysK and lysostaphin (white bars) in 300 mM NaCl, 50 mM NaH2PO4, 30% glycerol. Constructs are named as in FIG. 1a. Results are reported as the percentage reduction in biofilm compared to buffer treated biofilms. Data presented represents 4 replicates. Values represent means±[…]. Asterisks indicate significant differences (single factor ANOVA with t-test post hoc analysis Sidák correction) as compared to LysK (K) at that concentration. Adjusted alpha p<0.026. Peptidoglycan hydrolase constructs: lysostaphin (L), LysK (K), triple fusion K-L, and triple fusion (L-K), as named in FIG. 1a.
In the static biofilm reduction model, biofilms were produced as previously described (Gross et al. 2001. Infect. Immun. 69:3423-3426) with the following modifications. S. aureus strains were grown overnight in 5 ml TSB supplemented with 0.25% D(+)-glucose without shaking at 37° C. The culture was diluted 1/200 in fresh culture medium, and 200 μl was added to each well of a 96 well microtiter plate and incubated without shaking for 24 h at 37° C. Biofilms in the wells were washed twice with 200 μl SLB, treated with […] peptidoglycan hydrolase (Lysostaphin, LysK and the triple fusion proteins K-L and L-K) in SLB at concentrations indicated (FIG. 4) for 1 h at room temperature, and washed twice with 100 μl SLB. Adherent bacteria were fixed with 200 μl 95% ethanol-5% glacial acetic acid for 20 min, washed once with water, and stained with 100 μl 0.4% crystal violet for 15 min at room temperature. Excess stain was removed with 3 water washes. Bound stain was resolubilized in 33% acetic acid, and 20 μl was transferred to a 96 well plate containing 180 μl water. The OD590nm was determined in a Spectra Max plate reader. Percent reduction represents the difference in absorbance between biofilms exposed to buffer only and experimental wells that were exposed to the peptidoglycan hydrolases.
Static biofilms were created with S. aureus strain SA113 in 96 well dishes and treated for one hour with 100 μl of the indicated concentrations of each enzyme individually or as an equimolar mixture of LysK and lysostaphin.

| Molecule | Minimum Inhibitory Conc. (median μg/ml) (NRS 192) [µg/mL] | Minimum Inhibitory Conc. (median μg/ml) (USA 100 (NRS 382)) [µg/mL] | Minimum Inhibitory Conc. (median μg/ml) (USA 300 (NRS 384)) [µg/mL] | Minimum Inhibitory Conc. (median μg/ml) (USA 600 (NRS 22)) [µg/mL] | Minimum Inhibitory Conc. (median μg/ml) (S. chromogenes MP02) [µg/mL] | Minimum Inhibitory Conc. (median μg/ml) (S. epidermidis MP04) [µg/mL] | Minimum Inhibitory Conc. (median μg/ml) (S. warneri MP06) [µg/mL] | Minimum Inhibitory Conc. (median μg/ml) (S. xylosus MP05) [µg/mL] | increase in MIC after 10 rounds of sub-lethal exposure (S. aureus strain Newman [1]) [fold] | increased resistance during 10 rounds of sub-lethal exposure in plate lysis assays (S. aureus strain Newman [2]) | static biofilm reduction (in words) (S. aureus SA113 biofilms) |
| --- | --- | --- | --- | --- | --- | --- | --- | --- | --- | --- | --- |
| K-L: both LysK lytic domains fused to the N-terminus of lysostaphin; SEQ ID NO:5, protein SEQ ID NO:6 | 11 | 14 | 11 | 7.0 | 3.5 | 3.5 | 5.3 | 3.5 | 8 | no detectable increase in resistance | effectively reduced staphylococcal biofilms |
| L: 247 amino acid mature (secreted) lysostaphin, staphylolytic bacteriocin, C-terminal His6 tag; SEQ ID NO:1 [reference compound] | 1.2 | 1.2 | 1.2 | 1.2 | 0.58 | 6.2 | 1.5 | 0.39 | 585 | 8 fold | effectively reduced staphylococcal biofilms |
| L-K: LysK lytic domains inserted between lysostaphin's M23 endopeptidase domain and SH3b cell wall binding domain; SEQ ID NO:7, protein SEQ ID NO:8 (protein, Staphylococcus simulans & Phage K) MAATHEHSAQWLNNYKKGYGYGPYPLGINGGMHYGVDFFMNIGTPVKAISSGKIVEAGWSNYGGGNQIGLIENDGVHRQWYMHLSKYNVKVGDYVKAGQIIGWSGSTGYSTAPHLHFQRMVNSFSNSTAQDPMPFLKSAGYGKAGGTVTPTPNTGLDAKTQAEINKRLDAYAKGTVDSPYRVKKATSYDPSFGVMEAGAIDADGYYHAQCQDLITDYVLWLTDNKVRTWGNAKDQIKQSYGTGFKIHENKPSTVPKKGWIAVFTSGSYEQWGHIGIVYDGGNTSTFTILEQNWNGYANKKPTKRVDNYYGLTHFIEIPVKAGTTVKKETAKKSASKTPAPKKKATLKVSKNHINYTMDKRGKKPEGMVIHNDAGRSSGQQYENSLANAGYARYANGIAHYYGSEGYVWEAIDAKNQIAWHTGDGTGANSGNFRFAGIEVCQSMSASDAQFLKNEQAVFQFTAEKFKEWGLTPNRKTVRLHMEFVPTACPHRSMVLHTGFNPVTQGRPSQAIMNKLKDYFIKQIKNYMDKGTSSSTVVKDGKTSSASLDTVTPTPNTGWKTNKYGTLYKSESASFTPNTDIITRTTGPFRSMPQSGVLKAGQTIHYDEVMKQDGHVWVGYTGNSGQRIYLPVRTWNKSTNTLGVLWGTIKLEHHHHHH | 16 | 20 | 20 | 6.8 | 0.37 | 4.2 | 1.5 | 4.0 | 2 | no detectable increase in resistance | effectively reduced staphylococcal biofilms |
| K: 495 amino-acid staphylococcal phage K endolysin LysK, C-terminal His6 tag; SEQ ID NO:3 (protein, C-terminal His6 tag; Phage K) MAKTQAEINKRLDAYAKGTVDSPYRVKKATSYDPSFGVMEAGAIDADGYYHAQCQDLITDYVLWLTDNKVRTWGNAKDQIKQSYGTGFKIHENKPSTVPKKGWIAVFTSGSYEQWGHIGIVYDGGNTSTFTILEQNWNGYANKKPTKRVDNYYGLTHFIEIPVKAGTTVKKETAKKSASKTPAPKKKATLKVSKNHINYTMDKRGKKPEGMVIHNDAGRSSGQQYENSLANAGYARYANGIAHYYGSEGYVWEAIDAKNQIAWHTGDGTGANSGNFRFAGIEVCQSMSASDAQFLKNEQAVFQFTAEKFKEWGLTPNRKTVRLHMEFVPTACPHRSMVLHTGFNPVTQGRPSQAIMNKLKDYFIKQIKNYMDKGTSSSTVVKDGKTSSASTPATRPVTGSWKKNQYGTWYKPENATFVNGNQPIVTRIGSPFLNAPVGGNLPAGATIVYDEVCIQAGHIWIGYNAYNGNRVYCPVRTCQGVPPNQIPGVAWGVFKLEHHHHHH | 80 | 96 | 75 | 75 | 16 | 8.4 | 28 | 8.4 | 42 | 2 fold | effectively reduced staphylococcal biofilms |
